Experimental data from US20230089582A1, “1,2,4-TRIAZINE-3,5-DIONE COMPOUND, PREPARATION METHOD THEREFOR, AND APPLICATION THEREOF” (KPC PHARMACEUTICALS, INC, priority 2019, published 2023).

Legend:
THRβ = molecular target: T1, THRβ (Homo sapiens, UniProt P10828); assay: THRβ binding assay (TR-FRET co-activating peptide recruitment); type: biochemical; conditions: THRβ-LBD/RXRα, SRC2-2 co-activating peptide recruitment, agonistic effect
T1 construct: RXRα and GST-tagged THRβ-LBD
Protocol: Experimental method: In vitro analysis of the agonistic effect of the compounds on THRβ was performed using a time-resolved fluorescence resonance energy transfer co-activating peptide recruitment assay. The assay used Eu-anti-GST antibody, biotin-SRC2-2 co-activating peptide, streptavidin-d2, RXRα and GST-tagged THRβ-LBD. The Eu-anti-GST antibody indirectly labeled THRβ-LBD by binding to GST tag. Streptavidin-d2 indirectly labeled the SRC2-2 co-activating peptide by binding to biotin tag. In the presence of RXRα, THRβ-LBD can form a heterodimer THRβ-LBD/RXRα with it. The agonist bound to THRβ-LBD/RXRα and caused a conformational change of THRβ-LBD, thereby increasing the recruitment capacity of the heterodimer to the SRC2-2 co-activating peptide. Furthermore, the resulting decreased distance between the d2-labeled SRC2-2 co-activating peptide and the Eu-anti-GST antibody increased the […] signal. The agonistic ability of a compound can be assessed based on the effect of different concentrations of the compound on THRβ activity.
The detailed procedure is as follows.
a. 100× reference compound or compound was prepared with DMSO and diluted in 1:3.
e. The plates were centrifuged at 1000 rpm for 1 min and incubated for 4 h at room temperature shielded from light.

THRα = THRα (Homo sapiens, UniProt P10827); assay: THRα binding assay (TR-FRET co-activating peptide recruitment); type: biochemical; conditions: THRα instead of THRβ, agonistic effect
in vitro = conditions: microsomes, pH 7.4
Protocol: The stop solution was an acetonitrile solution containing tolbutamide and propranolol (both internal standards).
Phosphate buffer was 100 mM K3PO4 (pH=7.4) buffer containing 3.3 mM MgCl2.
The liver microsome incubation system was in 100 mM phosphate buffer containing 0.2 mg/mL liver microsomal protein and 1 μM test substance/positive control.
80 μL of the mixture was transferred from the incubation system to 400 μL of stop solution to precipitate proteins, and 20 μL of NADPH regeneration system was added after vortexing as a 0 min sample point.
130 μL of NADPH regeneration system was added to the remaining 520 μL of protein drug mixture and mixed well to start incubation. The final incubation system was 650 μL, containing 0.2 mg/mL liver microsomal protein, 1 μM test substance/positive control, 1.3 mM NADP, 3.3 mM G-6-P and 0.6 U/mL G-6-PDH.

T1 sequence (P10828 217-461 limits assumed, other chains not shown): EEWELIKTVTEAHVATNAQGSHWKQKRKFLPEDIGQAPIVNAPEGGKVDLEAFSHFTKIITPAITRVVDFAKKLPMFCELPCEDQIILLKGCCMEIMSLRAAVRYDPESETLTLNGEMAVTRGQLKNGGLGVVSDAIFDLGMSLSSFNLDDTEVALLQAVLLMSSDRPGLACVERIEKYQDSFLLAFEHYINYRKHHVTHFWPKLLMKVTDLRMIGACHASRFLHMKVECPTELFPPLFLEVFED
T1 sequence (P19793 whole entry partner, other chains not shown, the tested form may be a part): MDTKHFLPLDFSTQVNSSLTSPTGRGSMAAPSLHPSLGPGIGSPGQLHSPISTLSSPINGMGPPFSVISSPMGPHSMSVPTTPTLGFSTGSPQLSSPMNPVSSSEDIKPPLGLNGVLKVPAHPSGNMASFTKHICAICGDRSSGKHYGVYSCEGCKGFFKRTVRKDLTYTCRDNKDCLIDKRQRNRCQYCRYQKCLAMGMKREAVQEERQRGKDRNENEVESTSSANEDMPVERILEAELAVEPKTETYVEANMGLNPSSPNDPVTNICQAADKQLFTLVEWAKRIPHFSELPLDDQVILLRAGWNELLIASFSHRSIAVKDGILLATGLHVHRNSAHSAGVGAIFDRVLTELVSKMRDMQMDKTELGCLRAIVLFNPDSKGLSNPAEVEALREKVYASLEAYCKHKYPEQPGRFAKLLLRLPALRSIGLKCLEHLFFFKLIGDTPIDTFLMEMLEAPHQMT
Sequence of THRα (P10827 163-410 isoform P10827-2 limits assumed, other chains not shown): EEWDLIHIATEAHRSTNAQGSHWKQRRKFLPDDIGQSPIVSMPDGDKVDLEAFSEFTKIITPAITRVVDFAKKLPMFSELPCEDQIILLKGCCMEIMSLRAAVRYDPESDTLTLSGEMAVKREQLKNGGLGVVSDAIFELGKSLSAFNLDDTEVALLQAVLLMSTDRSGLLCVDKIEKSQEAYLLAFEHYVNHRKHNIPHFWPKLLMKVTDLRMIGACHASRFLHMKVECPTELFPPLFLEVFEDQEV
Sequence of THRα (P19793 whole entry partner, other chains not shown): as the sequence (P19793 whole entry partner, other chains not shown, the tested form may be a part) above

SMILES | EC50 (THRβ) [µM] | Emax (THRβ) [%] | EC50 (THRα) [µM] | Emax (THRα) [%] | further results
O=c1[nH]nc(Oc2c(Cl)cc(-n3nc(CF)c(=O)[nH]c3=O)cc2Cl)cc1C1CCCCC1 [Example 9, 2-(3,5-dichloro-4-((5-cyclohexyl-6-oxo-1,6-dihydropyridazin-3-yl)oxy)phenyl)-6-(fluoromethyl)-1,2,4-triazine-3,5(2H,4H)-dione] | 0.101 | 108 | 4.26 | 123 | 
CC(C)(F)c1cc(Oc2c(Cl)cc(-n3nc(CF)c(=O)[nH]c3=O)cc2Cl)n[nH]c1=O [Example 16, 3-(3,5-dichloro-4-((5-(2-fluoropropan-2-yl)-6-oxo-1,6-dihydropyridazin-3-yl)oxy)phenyl)-6-(fluoromethyl)-1,2,4-triazine-3,5(2H,4H)-dione] | 0.164 | 111 |  |  | 
CC(C)c1cc(Oc2c(Cl)cc(-n3nc(C#N)c(=O)[nH]c3=O)cc2Cl)n[nH]c1=O [Control compound 2, MGL-3196, reference compound] |  |  |  |  | half-life at 1 μM (in vitro; dog): 2 h; microsomal CLint at 1 μM (in vitro; dog): 28.9 µL/min/mg; half-life at 1 μM (in vitro; human): 5.18 h; microsomal CLint at 1 μM (in vitro; human): 11.2 µL/min/mg; half-life at 1 μM (in vitro; monkey): 4.96 h; microsomal CLint at 1 μM (in vitro; monkey): 11.6 µL/min/mg; half-life at 1 μM (in vitro; rat): 12.8 h; microsomal CLint at 1 μM (in vitro; rat): 4.5 µL/min/mg
CC(C)c1cc(Oc2c(Cl)cc(-n3nc(CF)c(=O)[nH]c3=O)cc2Cl)n[nH]c1=O [Example 2] | 0.005 | 92.8 | 0.19 | 107 | half-life at 1 μM (in vitro; dog): 4.4 h; microsomal CLint at 1 μM (in vitro; dog): 13.1 µL/min/mg; half-life at 1 μM (in vitro; human): 17.1 h; microsomal CLint at 1 μM (in vitro; human): 3.4 µL/min/mg; half-life at 1 μM (in vitro; monkey): 8.92 h; microsomal CLint at 1 μM (in vitro; monkey): 6.5 µL/min/mg; half-life at 1 μM (in vitro; mouse): 3.12 h; microsomal CLint at 1 μM (in vitro; mouse): 18.5 µL/min/mg; half-life at 1 μM (in vitro; rat): 12.3 h; microsomal CLint at 1 μM (in vitro; rat): 4.7 µL/min/mg
O=c1[nH]nc(Oc2c(Cl)cc(-n3nc(CF)c(=O)[nH]c3=O)cc2Cl)cc1C1CCCC1 [Example 10, 2-(3,5-dichloro-4-((5-cyclopentyl-6-oxo-1,6-dihydropyridazin-3-yl)oxy)phenyl)-6-(fluoromethyl)-1,2,4-triazine-3,5(2H,4H)-dione] | 0.094 | 110 | 1.41 | 112 | 
O=c1[nH]nc(Oc2c(Cl)cc(-n3nc(CF)c(=O)[nH]c3=O)cc2Cl)cc1C1CC1 [Example 12, 2-(3,5-dichloro-4-((5-cyclopropyl-6-oxo-1,6-dihydropyridazin-3-yl)oxy)phenyl)-6-(fluoromethyl)-1,2,4-triazine-3,5(2H,4H)-dione] | 0.071 | 105 | 0.21 | 127 | 
O=c1[nH]nc(Oc2c(Cl)cc(-n3nc(CF)c(=O)[nH]c3=O)cc2Cl)cc1C1CCC1 [Example 14, 2-(3,5-dichloro-4-((5-cyclobutyl-6-oxo-1,6-dihydropyridazin-3-yl)oxy)phenyl)-6-(fluoromethyl)-1,2,4-triazine-3,5(2H,4H)-dione] | 0.042 | 117 | 0.23 | 124 | 

Second part, led by results:

EC50 (THRβ) [µM] | Emax (THRβ) [%] | EC50 (THRα) [µM] | Emax (THRα) [%] | SMILES | further results
7.25 | 77.7 |  |  | CC(C)c1cc(Oc2c(Cl)cc(-n3nc(C4CC4)c(=O)[nH]c3=O)cc2Cl)n[nH]c1=O [Example 19, 6-cyclopropyl-2-(3,5-dichloro-4-((5-isopropyl-6-oxo-1,6-dihydropyridazin-3-yl)oxy)phenyl)-1,2,4-triazine-3,5(2H,4H)-dione] | 
0.0236 | 124 |  |  | C=C(C)c1cc(Oc2c(Cl)cc(-n3nc(CF)c(=O)[nH]c3=O)cc2Cl)n[nH]c1=O [Example 18, 2-(3,5-dichloro-4-((6-oxo-5-(prop-1-en-2-yl)-1,6-dihydropyridazin-3-yl)oxy)phenyl)-6-(fluoromethyl)-1,2,4-triazine-3,5(2H,4H)-dione] | 
> 10 |  |  |  | CC(C)c1cc(Oc2c(Cl)cc(-n3nc(O)c(=O)[nH]c3=O)cc2Cl)n[nH]c1=O [Example 20, 2-(3,5-dichloro-4-((5-isopropyl-6-oxo-1,6-dihydropyridazin-3-yl)oxy)phenyl)-6-hydroxy-1,2,4-triazine-3,5(2H,4H)-dione] | 
